Measurements: patent publication US20060142337A1, “Piperidine derivative and use thereof” (priority 2004, published 2006)
Counter-ions that a name gives are not always drawn.

Target: T1, substance P receptor (Homo sapiens, UniProt P25103)
T1 construct: endogenous in cells; host or cells: IM-9 human lymphoblast cells (membrane preparation)
Experiment: Radioligand receptor binding inhibitory activity using receptor from human lymphoblast cells (IM-9)
Details: [125I]-BHSP binding, receptor from IM-9 cells, 25 C, 30 min
Protocol: Radioligand receptor binding inhibitory activity (Binding inhibitory activity using receptor from human lymphoblast cells (IM-9))
The method of M. A. Cascieri et al., “Molecular Pharmacology 42, p. 458 (1992)” was modified and used. The receptor was. prepared from human lymphoblast cells (IM-9). IM-9 cells (2×10^5 cells/mL) were incubated for 3 days (one liter), which was then subjected to centrifuge for 5 min. at 500×G to obtain cell pellets. The obtained pellets were washed once with phosphate buffer (Flow Laboratories, CAT. No. 28-103-05), which were then homogenized using Polytron homogenizer (“Kinematika”, Germany) in 30 mL of 50 mM Tris-HCl buffer (pH 7.4) containing 120 mM sodium chloride, 5 mM potassium chloride, 2 μg/mL chymostatin, 40 μg/mL bacitracin, 5 μg/mL phosphoramidon, 0.5 mM phenylmethylsulfonyl fluoride, 1 mM ethylenediamine tetra-acetate, which was subjected to centrifuge at 40,000×G for 20 min. The residue was washed twice with 30 mL of the buffer, which was then preserved frozen (−80° C.) as a specimen of the receptor.
The specimen was suspended in a reaction buffer (50 mM Tris-HCl buffer (pH 7.4), 0.02% bovine serum albumin, 1 mM phenylmethylsulfonyl fluoride, 2 μg/mL chymostatin, 40 μg/mL bacitracin and 3 mM manganese chloride) to have protein in the concentration of 0.5 mg/mL of protein and 100 μL portion of the suspension was used in the reaction. After addition of the sample and ^125]-BHSP (0.46 KBq), the reaction was allowed to proceed in 0.2 mL of reaction buffer at […] for 30 min. The amount of nonspecific binding was determined by adding substance P at a final concentration of 2×10^−6 M.
After the reaction, using a cell harvester (290 PHD, Cambridge Technology, Inc, U.S.A.), filtration was carried out through a glass filter (GF/B, Whatman, U.S.A.), which was immersed in 0.1% polyethyleneimine for 24 hrs. and dried. After washing three times with 250 μL of 50 mM Tris-HCl buffer (pH 7.4) containing 0.02% bovine serum albumin, the radioactivity remaining on the filter was. determined with a gamma counter.
The antagonistic activity of each compound obtained in Examples was determined in terms of the concentration necessary to cause 50% inhibition (IC50 value) under the above-described conditions, and the results were shown in Table 14.
The radio ligand means substance P labeled with [^125I].

T1 sequence (P25103 whole entry): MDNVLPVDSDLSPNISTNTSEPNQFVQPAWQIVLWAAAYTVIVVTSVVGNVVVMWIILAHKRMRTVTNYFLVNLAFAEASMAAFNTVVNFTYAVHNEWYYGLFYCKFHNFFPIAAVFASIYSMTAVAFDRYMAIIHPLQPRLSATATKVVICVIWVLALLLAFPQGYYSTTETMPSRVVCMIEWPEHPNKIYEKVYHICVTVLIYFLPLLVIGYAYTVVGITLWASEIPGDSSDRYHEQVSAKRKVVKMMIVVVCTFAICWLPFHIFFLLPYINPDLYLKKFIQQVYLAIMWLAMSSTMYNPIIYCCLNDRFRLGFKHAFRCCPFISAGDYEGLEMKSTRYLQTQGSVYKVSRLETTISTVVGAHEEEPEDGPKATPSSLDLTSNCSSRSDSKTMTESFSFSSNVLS

SMILES: C[C@@H](O[C@H]1CCN(C(=O)C2CCN(C3CCOC3=O)CC2)C[C@H]1c1ccccc1)c1cc(C(F)(F)F)cc(C(F)(F)F)c1 (single isomer, unassigned) [Example 34, hydrochloride]
- IC50: 0.035 nM

SMILES: C[C@@H](O[C@H]1CCN(C(=O)C2CCN(C3CCOC3=O)CC2)C[C@H]1c1ccccc1)c1cc(C(F)(F)F)cc(C(F)(F)F)c1 (single isomer, unassigned) [Example 35, hydrochloride]
- IC50: 0.043 nM

SMILES: COc1ccc(-n2nnnc2C(F)(F)F)cc1C(C)N[C@H]1CCN(C(=O)C2CCN(C(C)=O)CC2)C[C@H]1c1ccccc1 (single isomer, unassigned) [Example 83]
- IC50: 0.058 nM

SMILES: COc1ccc(-n2nnnc2C(F)(F)F)cc1C(C)N[C@H]1CCN(C(=O)CNC(C)=O)C[C@H]1c1ccccc1 (single isomer, unassigned) [Example 85]
- IC50: 0.09 nM

SMILES: CC(=O)N1CCC(C(=O)N2CC[C@H](O[C@H](C)c3cc(C(F)(F)F)cc(C(F)(F)F)c3)[C@H](c3ccccc3)C2)CC1 [Example 36, (3R,4S)-1-[(1-Acetylpiperidin-4-yl)carbonyl]-4-[(1R)-1-[3,5-bis(trifluoromethyl)phenyl]ethoxy]-3-phenylpiperidine]
- IC50: 0.026 nM

SMILES: CC(=O)NCC(=O)N1CCC(C(=O)N2CC[C@H](O[C@H](C)c3cc(C(F)(F)F)cc(C(F)(F)F)c3)[C@H](c3ccccc3)C2)CC1 [Example 38, N-[2-[4-[[(3R,4S)-4-[(1R)-1-[3,5-Bis(trifluoromethyl)phenyl]ethoxy]-3-phenylpiperidin-1-yl]carbonyl]piperidin-1-yl]-2-oxoethyl]acetamide]
- IC50: 0.025 nM

SMILES: C[C@@H](O[C@H]1CCN(C(=O)C2CCN(C(=O)Cn3cnnn3)CC2)C[C@H]1c1ccccc1)c1cc(C(F)(F)F)cc(C(F)(F)F)c1 [Example 39, (3R,4S)-4-[(1R)-1-[3,5-Bis(trifluoromethyl)phenyl]ethoxy]-3-phenyl-1-[[1-(1H-tetrazol-1-ylacetyl)piperidin-4-yl]carbonyl]piperidine]
- IC50: 0.032 nM

SMILES: C[C@@H](O[C@H]1CCN(C(=O)C2CCN(C(=O)N3CCNC3=O)CC2)C[C@H]1c1ccccc1)c1cc(C(F)(F)F)cc(C(F)(F)F)c1 [Example 40, 1-[[4-[[(3R,4S)-4-[(1R)-1-[3,5-Bis(trifluoromethyl)phenyl]ethoxy]-3-phenylpiperidin-1-yl]carbonyl]piperidin-1-yl]carbonyl]imidazolidin-2-one]
- IC50: 0.038 nM

SMILES: CC(=O)N[C@H]1CC[C@H](C(=O)N2CC[C@H](O[C@H](C)c3cc(C(F)(F)F)cc(C(F)(F)F)c3)[C@H](c3ccccc3)C2)CC1 [Example 42, N-[trans-4-[[(3R,4S)-4-[(1R)-1-[3,5-Bis(trifluoromethyl)phenyl]ethoxy]-3-phenylpiperidin-1-yl]carbonyl]cyclohexyl]acetamide]
- IC50: 0.023 nM

SMILES: CCCC(=O)N[C@H]1CC[C@H](C(=O)N2CC[C@H](O[C@H](C)c3cc(C(F)(F)F)cc(C(F)(F)F)c3)[C@H](c3ccccc3)C2)CC1 [Example 44, N-[trans-4-[[(3R,4S)-4-[(1R)-1-[3,5-Bis(trifluoromethyl)phenyl]ethoxy]-3-phenylpiperidin-1-yl]carbonyl]cyclohexyl]butanamide]
- IC50: 0.053 nM

SMILES: CC(C)C(=O)N[C@H]1CC[C@H](C(=O)N2CC[C@H](O[C@H](C)c3cc(C(F)(F)F)cc(C(F)(F)F)c3)[C@H](c3ccccc3)C2)CC1 [Example 45, N-[trans-4-[[(3R,4S)-4-[(1R)-1-[3,5-Bis(trifluoromethyl)phenyl]ethoxy]-3-phenylpiperidin-1-yl]carbonyl]cyclohexyl]-2-methylpropanamide]
- IC50: 0.05 nM

SMILES: C[C@@H](O[C@H]1CCN(C(=O)[C@H]2CC[C@H](NC(=O)C3CC3)CC2)C[C@H]1c1ccccc1)c1cc(C(F)(F)F)cc(C(F)(F)F)c1 [Example 46, N-[trans-4-[[(3R,4S)-4-[(1R)-1-[3,5-Bis(trifluoromethyl)phenyl]ethoxy]-3-phenylpiperidin-1-yl]carbonyl]cyclohexyl]cyclopropanecarboxamide]
- IC50: 0.061 nM

SMILES: CNC(=O)N[C@H]1CC[C@H](C(=O)N2CC[C@H](O[C@H](C)c3cc(C(F)(F)F)cc(C(F)(F)F)c3)[C@H](c3ccccc3)C2)CC1 [Example 47, N-[trans-4-[[(3R,4S)-4-[(1R)-1-[3,5-Bis(trifluoromethyl)phenyl]ethoxy]-3-phenylpiperidin-1-yl]carbonyl]cyclohexyl]-N′-methylurea]
- IC50: 0.036 nM

SMILES: C[C@@H](O[C@H]1CCN(C(=O)[C@H]2CC[C@H](NS(C)(=O)=O)CC2)C[C@H]1c1ccccc1)c1cc(C(F)(F)F)cc(C(F)(F)F)c1 [Example 49, N-[trans-4-[[(3R,4S)-4-[(1R)-1-[3,5-Bis(trifluoromethyl)phenyl]ethoxy]-3-phenylpiperidin-1-yl]carbonyl]cyclohexyl]methanesulfonamide]
- IC50: 0.055 nM

SMILES: C[C@@H](O[C@H]1CCN(C(=O)[C@H]2CC[C@H](NC(=O)c3cccs3)CC2)C[C@H]1c1ccccc1)c1cc(C(F)(F)F)cc(C(F)(F)F)c1 [Example 51, N-[trans-4-[[(3R,4S)-4-[(1R)-1-[3,5-Bis(trifluoromethyl)phenyl]ethoxy]-3-phenylpiperidin-1-yl]carbonyl]cyclohexyl]thiophene-2-carboxamide]
- IC50: 0.077 nM

SMILES: CC(=O)N[C@H]1CC[C@@H](C(=O)N2CC[C@H](O[C@H](C)c3cc(C(F)(F)F)cc(C(F)(F)F)c3)[C@H](c3ccccc3)C2)CC1 [Example 54, N-[cis-4-[[(3R,4S)-4-[(1R)-1-[3,5-Bis(trifluoromethyl)phenyl]ethoxy]-3-phenylpiperidin-1-yl]carbonyl]cyclohexyl]acetamide]
- IC50: 0.075 nM

SMILES: C[C@@H](O[C@H]1CCN(C(=O)[C@H]2CC[C@H](NC(=O)CN3CCCCC3=O)CC2)C[C@H]1c1ccccc1)c1cc(C(F)(F)F)cc(C(F)(F)F)c1 [Example 57, N-[trans-4-[[(3R,4S)-4-[(1R)-1-[3,5-Bis(trifluoromethyl)phenyl]ethoxy]-3-phenylpiperidin-1-yl]carbonyl]cyclohexyl]-2-(2-oxopiperidin-1-yl)acetamide]
- IC50: 0.057 nM

SMILES: C[C@@H](O[C@H]1CCN(C(=O)[C@H]2CC[C@H](NC(=O)CCCCCl)CC2)C[C@H]1c1ccccc1)c1cc(C(F)(F)F)cc(C(F)(F)F)c1 [Example 59, N-[trans-4-[[(3R,4S)-4-[(1R)-1-[3,5-Bis(trifluoromethyl)phenyl]ethoxy]-3-phenylpiperidin-1-yl]carbonyl]cyclohexyl]-5-chloropentanamide]
- IC50: 0.087 nM

SMILES: COC(=O)N[C@H]1CC[C@H](C(=O)N2CC[C@H](O[C@H](C)c3cc(C(F)(F)F)cc(C(F)(F)F)c3)[C@H](c3ccccc3)C2)CC1 [Example 61, Methyl trans-4-[[(3R,4S)-4-[(1R)-1-[3,5-bis(trifluoromethyl)phenyl]ethoxy]-3-phenylpiperidin-1-yl]carbonyl]cyclohexylcarbamate]
- IC50: 0.098 nM

SMILES: CCNC(=O)N[C@H]1CC[C@H](C(=O)N2CC[C@H](O[C@H](C)c3cc(C(F)(F)F)cc(C(F)(F)F)c3)[C@H](c3ccccc3)C2)CC1 [Example 63, N-[trans-4-[[(3R,4S)-4-[(1R)-1-[3,5-Bis(trifluoromethyl)phenyl]ethoxy]-3-phenylpiperidin-1-yl]carbonyl]cyclohexyl]-N′-ethylurea]
- IC50: 0.075 nM

SMILES: CC(C)NC(=O)N[C@H]1CC[C@H](C(=O)N2CC[C@H](O[C@H](C)c3cc(C(F)(F)F)cc(C(F)(F)F)c3)[C@H](c3ccccc3)C2)CC1 [Example 65, N-[trans-4-[[(3R,4S)-4-[(1R)-1-[3,5-Bis(trifluoromethyl)phenyl]ethoxy]-3-phenylpiperidin-1-yl]carbonyl]cyclohexyl]-N′-isopropylurea]
- IC50: 0.099 nM

SMILES: C[C@@H](O[C@H]1CCN(C(=O)[C@H]2CC[C@H](NC(=O)N(C)C)CC2)C[C@H]1c1ccccc1)c1cc(C(F)(F)F)cc(C(F)(F)F)c1 [Example 66, N′-[trans-4-[[(3R,4S)-4-[(1R)-1-[3,5-Bis(trifluoromethyl)phenyl]ethoxy]-3-phenylpiperidin-1-yl]carbonyl]cyclohexyl]-N,N-dimethylurea]
- IC50: 0.072 nM

SMILES: CNC(=O)[C@H]1CC[C@H](C(=O)N2CC[C@H](O[C@H](C)c3cc(C(F)(F)F)cc(C(F)(F)F)c3)[C@H](c3ccccc3)C2)CC1 [Example 68, trans-4-[[(3R,4S)-4-[(1R)-1-[3,5-Bis(trifluoromethyl)phenyl]ethoxy]-3-phenylpiperidin-1-yl]carbonyl]-N-methylcyclohexanecarboxamide]
- IC50: 0.094 nM
